Measured values as given in PubChem BioAssay AID248 (DTP/NCI, 2004).
“And” between values parts separate entries of the source, which are not always exact repeats. Equal values may be shown once. Toxic doses and inconclusive results are not listed. No stated cut-off is given here; in the data, active means T/C of 150% or more; inactive means T/C below 125%.

Tested on: L1210 leukemia ip in BDF1 mice, survival T/C
Assay: NCI In Vivo Anticancer Drug Screen. Data for tumor model L1210 Leukemia (intraperitoneal) in B6D2F1 (BDF1) mice
Conditions: endpoint: mean survival time, higher = longer survival
Method in brief: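 In this screen, tumor-bearing mice given compound are compared to those given vehicle, and their survival values are reported as a treated-to-control quotient.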

[1] = dose: 100.0 mg/kg/injection, schedule: Q04DX003 (ip), vehicle: saline with Tween-80
[2] = dose: 100.0 mg/kg/injection, schedule: Q04DX002 (ip), vehicle: saline
[3] = dose: 100.0 mg/kg/injection, schedule: Q04DX003 (ip), vehicle: Klucel (hydroxypropylcellulose) (HPC)
[4] = dose: 200.0 mg/kg/injection, schedule: Q04DX003 (ip), vehicle: Klucel (hydroxypropylcellulose) (HPC)
[5] = dose: 400.0 mg/kg/injection, schedule: Q04DX003 (ip), vehicle: Klucel (hydroxypropylcellulose) (HPC)
[6] = dose: 100.0 mg/kg/injection, schedule: Q01DX001 (ip), vehicle: saline
[7] = dose: 200.0 mg/kg/injection, schedule: Q01DX001 (ip), vehicle: saline
[8] = dose: 400.0 mg/kg/injection, schedule: Q01DX001 (ip), vehicle: saline
[9] = dose: 400.0 mg/kg/injection, schedule: Q04DX002 (ip), vehicle: Klucel (hydroxypropylcellulose) (HPC)
[10] = dose: 50.0 mg/kg/injection, schedule: Q01DX001 (ip), vehicle: saline
[11] = dose: 100.0 mg/kg/injection, schedule: Q04DX002 (ip), vehicle: saline with Tween-80
[12] = dose: 100.0 mg/kg/injection, schedule: Q01DX009 (ip), vehicle: saline with Tween-80
[13] = dose: 200.0 mg/kg/injection, schedule: Q01DX009 (ip), vehicle: saline with Tween-80
[14] = dose: 400.0 mg/kg/injection, schedule: Q01DX009 (ip), vehicle: saline with Tween-80
[15] = dose: 200.0 mg/kg/injection, schedule: Q04DX003 (ip), vehicle: saline with Tween-80

Measured: T/C

CN(N=O)C(=O)NC1C=CCCC1 (stereo not drawn)
inactive: dose: 12.5 mg/kg/injection, schedule: Q01DX001 (ip), vehicle: other 104 % of control | dose: 25.0 mg/kg/injection, schedule: Q01DX001 (ip), vehicle: other 95 % of control | dose: 50.0 mg/kg/injection, schedule: Q01DX001 (ip), vehicle: other 97 % of control | dose: 100.0 mg/kg/injection, schedule: Q01DX001 (ip), vehicle: other 96 % of control | dose: 200.0 mg/kg/injection, schedule: Q01DX001 (ip), vehicle: other 104 % of control

CC1C(c2ccccc2)OCN1CN1C(=O)C=CC1=O (stereo not drawn) (tested in a mixture with another compound)
inactive: [1] 90 % of control

O=C(C1OC1c1ccccc1)C1OC1c1ccccc1 (stereo not drawn)
inactive: dose: 100.0 mg/kg/injection, schedule: Q01DX009 (ip), vehicle: Klucel (hydroxypropylcellulose) (HPC) 98 % of control | dose: 200.0 mg/kg/injection, schedule: Q01DX009 (ip), vehicle: Klucel (hydroxypropylcellulose) (HPC) 101 % of control | dose: 400.0 mg/kg/injection, schedule: Q01DX009 (ip), vehicle: Klucel (hydroxypropylcellulose) (HPC) 95 % of control

c1cc2c(c(OCC3=NCCN3)c1)CCCC2
inactive: [2] 94 % of control

c1ccc2c(c1)ccc1ncccc12
inactive: [3] 103 % of control | [4] 102 % of control | [5] 101 % of control

O=C1C=C(c2ccccc2)C(c2ccccc2)=C1
inactive: dose: 50.0 mg/kg/injection, schedule: Q01DX001 (ip), vehicle: carboxymethylcellulose (CMC) 101 % of control | dose: 100.0 mg/kg/injection, schedule: Q01DX001 (ip), vehicle: carboxymethylcellulose (CMC) 95 % of control | dose: 200.0 mg/kg/injection, schedule: Q01DX001 (ip), vehicle: carboxymethylcellulose (CMC) 92 % of control | dose: 400.0 mg/kg/injection, schedule: Q01DX001 (ip), vehicle: carboxymethylcellulose (CMC) 103 % of control

N=C(N)SC/C=C/CSC(=N)N
inactive: dose: 25.0 mg/kg/injection, schedule: Q04DX003 (ip), vehicle: saline 106 % of control | dose: 50.0 mg/kg/injection, schedule: Q04DX003 (ip), vehicle: saline 96 % of control | dose: 100.0 mg/kg/injection, schedule: Q04DX003 (ip), vehicle: saline 103 % of control and 88 % of control

CCOc1ccc(OCC(=O)O)cc1
inactive: [3] 93 % of control | [4] 89 % of control | [5] 89 % of control

CCCCCN(C(=N)CCCC)S(=O)(=O)c1ccccc1
inactive: [6] 89 % of control | [7] 95 % of control | [8] 106 % of control

CC1(C)CN1P(=O)(Oc1ccccc1)N1CC1(C)C (stereo not drawn)
inactive: dose: 88.0 mg/kg/injection, schedule: Q01DX001 (ip), vehicle: carboxymethylcellulose (CMC) 111 % of control

O=C1OC2CC3CCC2C13 (stereo not drawn)
inactive: dose: 6.25 mg/kg/injection, schedule: Q01DX001 (ip), vehicle: saline 96 % of control | dose: 12.5 mg/kg/injection, schedule: Q01DX001 (ip), vehicle: saline 96 % of control | dose: 25.0 mg/kg/injection, schedule: Q01DX001 (ip), vehicle: saline 98 % of control

c1ccc(C2CCCCCC2)cc1
inactive: dose: 100.0 mg/kg/injection, schedule: Q01DX009 (ip), vehicle: saline 104 % of control | dose: 200.0 mg/kg/injection, schedule: Q01DX009 (ip), vehicle: saline 95 % of control | dose: 400.0 mg/kg/injection, schedule: Q01DX009 (ip), vehicle: saline 90 % of control

c1ccc(-c2nc(-c3nccc4ccccc34)oc2-c2ccccc2)cc1
inactive: [6] 97 % of control | [7] 88 % of control | [8] 93 % of control

NC(CSS(=O)(=O)O)=NCCc1ccccn1
inactive: dose: 12.5 mg/kg/injection, schedule: Q04DX002 (ip), vehicle: Klucel (hydroxypropylcellulose) (HPC) 100 % of control | dose: 25.0 mg/kg/injection, schedule: Q04DX002 (ip), vehicle: Klucel (hydroxypropylcellulose) (HPC) 88 % of control | dose: 50.0 mg/kg/injection, schedule: Q04DX002 (ip), vehicle: Klucel (hydroxypropylcellulose) (HPC) 91 % of control | [9] 90 % of control

O=C1C=CC(=O)C(SCCCSC2=CC(=O)C(SCCCSC3=CC(=O)C=CC3=O)=CC2=O)=C1
inactive: [6] 92 % of control | [7] 92 % of control | [8] 101 % of control

C/C(=C\C(C)(C)c1ccccc1)c1ccccc1 (tested in a mixture with another compound)
inactive: [10] 90 % of control | [6] 96 % of control | [7] 113 % of control | [8] 116 % of control

CC(=O)N(C)c1ccc(S(=O)(=O)F)cc1
inactive: dose: 100.0 mg/kg/injection, schedule: Q01DX001 (ip), vehicle: Klucel (hydroxypropylcellulose) (HPC) 103 % of control | dose: 200.0 mg/kg/injection, schedule: Q01DX001 (ip), vehicle: Klucel (hydroxypropylcellulose) (HPC) 103 % of control

CC1=CCCCC1O (stereo not drawn)
inactive: [11] 93 % of control | dose: 200.0 mg/kg/injection, schedule: Q04DX002 (ip), vehicle: saline with Tween-80 96 % of control | dose: 400.0 mg/kg/injection, schedule: Q04DX002 (ip), vehicle: saline with Tween-80 93 % of control

CCOC(=O)C(C)(CCC#N)C(=O)OCC
inactive: [6] 95 % of control | [2] 101 % of control | [7] 95 % of control | dose: 200.0 mg/kg/injection, schedule: Q04DX002 (ip), vehicle: saline 105 % of control | [8] 95 % of control | dose: 400.0 mg/kg/injection, schedule: Q04DX002 (ip), vehicle: saline 105 % of control

O=C(O)CS(=O)(=O)c1ccc(Cl)cc1
inactive: [12] 109 % of control | [13] 102 % of control | [14] 86 % of control

Oc1c(Br)cc(-c2ccccc2)cc1Br
inactive: dose: 100.0 mg/kg/injection, schedule: Q04DX002 (ip), vehicle: gum acacia 95 % of control | dose: 200.0 mg/kg/injection, schedule: Q04DX002 (ip), vehicle: gum acacia 95 % of control | dose: 400.0 mg/kg/injection, schedule: Q04DX002 (ip), vehicle: gum acacia 103 % of control

CCOC1CC2(c3ccccc3)OC(=O)OC12c1ccccc1 (stereo not drawn)
inactive: dose: 25.0 mg/kg/injection, schedule: Q04DX002 (ip), vehicle: saline with Tween-80 115 % of control | dose: 50.0 mg/kg/injection, schedule: Q04DX002 (ip), vehicle: saline with Tween-80 101 % of control | [11] 115 % of control

COc1ccc(CCC2=NCCN2)cc1OC
inactive: [1] 103 % of control | [15] 97 % of control

O=C(C=C(C(F)(F)F)C(F)(F)F)c1ccc(Cl)cc1
inactive: dose: 3.13 mg/kg/injection, schedule: Q01DX009 (ip), vehicle: saline with Tween-80 101 % of control | dose: 6.25 mg/kg/injection, schedule: Q01DX009 (ip), vehicle: saline with Tween-80 97 % of control | dose: 12.5 mg/kg/injection, schedule: Q01DX009 (ip), vehicle: saline with Tween-80 100 % of control | dose: 25.0 mg/kg/injection, schedule: Q01DX009 (ip), vehicle: saline with Tween-80 97 % of control and 101 % of control | dose: 50.0 mg/kg/injection, schedule: Q04DX003 (ip), vehicle: saline with Tween-80 91 % of control | [1] 86 % of control | [15] 86 % of control

CCOC(=O)C(N)Cc1cc(I)c(O)c(I)c1 (stereo not drawn)
inactive: [1] 95 % of control | [15] 97 % of control | dose: 400.0 mg/kg/injection, schedule: Q04DX003 (ip), vehicle: saline with Tween-80 101 % of control

COc1ccc(Cl)cc1C/C=N/NC(=O)C[N+](C)(C)C
inactive: dose: 75.0 mg/kg/injection, schedule: Q01DX001 (ip), vehicle: saline 92 % of control

COc1c(C)c(Br)c(OC)c2ccccc12
inactive: [12] 89 % of control | [13] 94 % of control | [14] 94 % of control

Nc1c(Br)cccc1Br
inactive: [10] 101 % of control | [6] 109 % of control | [7] 103 % of control | [8] 97 % of control

CCO/C=N\c1c(C#N)c(CC#N)nn1C
inactive: dose: 100.0 mg/kg/injection, schedule: Q04DX002 (ip), vehicle: Klucel (hydroxypropylcellulose) (HPC) 102 % of control | dose: 200.0 mg/kg/injection, schedule: Q04DX002 (ip), vehicle: Klucel (hydroxypropylcellulose) (HPC) 98 % of control | [9] 102 % of control

CCOC(=O)CC1NCCc2c1[nH]c1ccccc21 (stereo not drawn)
inactive: dose: 6.25 mg/kg/injection, schedule: Q01DX001 (ip), vehicle: saline sonified 93 % of control | dose: 12.5 mg/kg/injection, schedule: Q01DX001 (ip), vehicle: saline sonified 98 % of control | dose: 25.0 mg/kg/injection, schedule: Q01DX001 (ip), vehicle: saline sonified 97 % of control
